Like-named read-outs stand apart in the source and are kept apart here. Ends that are not written are not given here.

For assay [1], the system named is Fc region (Jackson ImmunoResearch Laboratories, Inc.) labeled with horseradish peroxidase (HRP). The assay can be described thus: ELISA of recombinant phages displaying polypeptides (Example 1, 6). In kind it is binding, human. Conditions: recombinant T7 phage displaying the polypeptide, absorbance at 415 nm. The procedure:
6) In this section, it will be stated as an example that the binding activity of recombinant phages transformed by nucleic acids encoding the amino acid sequences represented by SEQ ID NOs: 2 to 9 and 11 to 19 was measured by Enzyme Linked Immuno-Sorbent Assay (ELISA).
DNA molecules encoding the amino acid sequences of SEQ ID NOs: 2 to 9 and 11 to 19 were amplified by a polymerase chain reaction (PCR). PCR was carried out using KOD DNA polymerase (TOYOBO) under reaction conditions according to the accompanying manual. The amplified DNA molecules were each digested with restriction enzymes EcoRI and HindIII and ligated to 3′ terminal of g10 gene on T7 phage genomic DNA. Ligation to T7 phage genomic DNA was performed by use of a sample attached to T7Select10-3 Cloning Kit (Novagen) under the reaction conditions and in accordance with the procedure described in the accompanying T7Select (registered trade mark) System Manual. Using T7 phage genomic DNA ligated, T7 phage was packaged in a test tube by T7Select Packaging Kit (Novagen) under the reaction conditions in accordance with T7Select (registered trade mark) System Manual (Novagen). Subsequently, phage plaques were formed in accordance with T7Select (registered trade mark) System Manual (Novagen). From each of the plaques, a recombinant phage displaying the polypeptide was isolated. To MICROTEST (registered trade mark) 96 (BECTON, DICKINSON AND COMPANY), a culture solution (0.2 mL) of Escherichia coli BL5403 strain cultured in LB medium until O.D.600 reached 1.0 was poured to infect with the Escherichia coli cells each of the recombinant phages isolated from plaques and allowed to stand still at 37° C. for 12 hours to proliferate phages. The culture solution (10 μL) containing these phages was diluted in 90 μL of TBS buffer (50 mM Tris-HCl, 150 mM NaCl, pH 7.4) to prepare measurement samples.
The measurement samples were poured to MEDISORP 96 well microplate (Nunc) and allowed to stand still for one hour to allow the phage to physically adsorb to the plate. After the supernatant was removed, SuperBlock (registered trade mark) T20 (TBS) Blocking Buffer (Thermo […]) (150 μL) was poured to the plate and allowed to stand still for one hour to block the surface of the plate. The plate was washed three times with TBS-T buffer (50 mM Tris-HCl, 150 mM NaCl, 0.1% Tween 20 (registered trade mark), pH 7.4). To the plate, TBS-T buffer (100 μL) containing an Fc region (Jackson ImmunoResearch Laboratories, Inc.) (0.2 μg/mL) labeled with horseradish peroxidase (HRP) was added and allowed to stand still for one hour. After the plate was washed three times with TBS-T buffer, ABTS One Component HRP Microwell Substrate (BioFX) (100 μL) was poured to the plate. Binding activity was detected through a color reaction. The absorbance at 415 nm (O.D.415) was measured by a microplate absorbance reader Sunrise R (TECAN GROUP LTD.). TBS-T buffer containing no phages was used as a negative control in a control experiment.
ELISA results of the recombinant phages displaying polypeptides containing amino acid sequences represented by SEQ ID NOs: 2 to 9 and the recombinant phages displaying polypeptides containing amino acid sequences represented by SEQ ID NOs: 11 to 19 are shown in Table 2A and Table 2B, respectively.
(ELISA stands for enzyme-linked immunosorbent assay.)

The target in assay [2] is T1, Fc region prepared by digesting human monoclonal antibody IgG with papain (Homo sapiens, UniProt P01857).
T1 construct: The Fc region to be immobilized to a sensor chip was prepared, by digesting human monoclonal antibody IgG with papain; made in house; host or cells: papain digest of human monoclonal IgG (Pierce Fab Preparation Kit), then MabSelect SuRe, HiTrap DEAE and Superdex 200
As to the kind of experiment: Surface plasmon resonance, polypeptides on immobilized Fc region prepared from human monoclonal IgG (Example 2, 3) and 4); Example 8). The assay is classed as binding. Here is the method: The polypeptides, which were previously synthesized in an organic chemical manner were purchased from bio[…], were diluted with HBS-T buffer and controlled so as to have a concentration of 500, 400, 300, 200 or 100 nM. The surface plasmon resonance test was performed by using Biacore T100 (GE Healthcare). The Fc region to be immobilized to a sensor chip was prepared, by digesting human monoclonal antibody IgG with papain, in accordance with the instruction attached to Pierce (registered trade mark) Fab Preparation Kit (Thermo […]), followed by purifying by affinity chromatography using MabSelect SuRe (GE Healthcare), HiTrap DEAE anion exchange chromatography (GE Healthcare) and gel filtration chromatography using Superdex 200 (GE Healthcare). The Fc region prepared was immobilized to Sensor Chip CM5 (GE Healthcare) by the amine coupling method. The binding activity of the synthesized peptides prepared was measured and equilibrium dissociation constants were determined. Data were processed by use of Biacore TOO Evaluation Software (GE Healthcare).
4) In this section, it will be stated as an example that the binding activity of a polypeptide consisting of an amino acid sequence (referred to as p17) of SEQ ID NO: 57 was measured by surface plasmon resonance. The polypeptide was prepared by cleaving thioredoxin fusion protein p17_trx consisting of the amino acid sequence of SEQ ID NO: 86 with a protease and removing a thioredoxin portion. Since the thioredoxin fusion protein, which is produced by expression vector pET-48b (Novagen), has an HRV 3C protease cleavage site in the amino acid sequence, the desired polypeptide ligated to the C terminal can be obtained by use of protease.
DNA (SEQ ID NO: 124) encoding the thioredoxin fusion protein (SEQ ID NO: 86) containing p17 was synthesized by PCR and introduced to an expression vector, pET-48b (Novagen). Using the expression vector and in accordance with the same procedure as in Example, 1, 5), the thioredoxin fusion protein was prepared. The thioredoxin fusion protein (40 mg) was digested with 100 units of HRV 3C Protease (Novagen) at 4° C. under the reaction conditions according to the accompanying manual. The digested product was diluted in a 6 M guanidine hydrochloride solution and purified by gel filtration chromatography using Superdex Peptide 10/300 GL (GE Healthcare). Subsequently reverse phase chromatography using μRPC C2/C18 ST 4.6/100 (GE Healthcare) was performed to prepare a polypeptide p17 consisting of an amino acid sequence of SEQ ID NO: 57.
Subsequently, the binding activity of p17 prepared was measured by surface plasmon resonance by use of Biacore T100 (GE Healthcare).
Subsequently, the binding activity of five types of polypeptides prepared above was analyzed by surface plasmon resonance. Biacore T100 (GE Healthcare) was used in measurement. […]

For assay [3], the target named is IgG. Conditions: domains by themselves; Non Patent Literature 28 and 29; cited from earlier work.
Assay [4] addresses human Fc region manufactured by Jackson ImmunoResearch Laboratories, Inc. The assay can be described thus: Surface plasmon resonance, synthetic polypeptides on immobilized human Fc region (Example 1, 4). In kind it is binding. Conditions: synthetic polypeptide, 25° C., HBS-T buffer pH 7.4. The procedure: The polypeptides previously synthesized in an organic chemical manner were purchased from bio[…]. Biacore T100 (GE Healthcare) was used as a surface plasmon resonance measurement apparatus. The human Fc region manufactured by Jackson ImmunoResearch Laboratories, Inc. was immobilized to Sensor Chip CM5 (GE Healthcare) in accordance with an amine coupling method using an Amine Coupling Kit (GE Healthcare). […] The binding activity of these polypeptides was measured at a reaction temperature of 25° C. The measurement data were processed by Biacore TOO Evaluation Software (GE Healthcare).
Background: In SPR one partner is held on a chip, and binding of the other changes the refractive index at the surface.

For a further assay, the target named is human IgG. Conditions: competitive reaction with protein A; read-out: competitive inhibitory capacity Ki; cited from earlier work.
Assay [5] has as its target IgG. The note with it: Non Patent Literature 4; read-out: equilibrium dissociation constant, KD; cited from earlier work.
The target in a further assay is rabbit IgG. Conditions: Non Patent Literature 5; cited from earlier work.
rabbit IgG, sequence (P01870 101-323 limits assumed): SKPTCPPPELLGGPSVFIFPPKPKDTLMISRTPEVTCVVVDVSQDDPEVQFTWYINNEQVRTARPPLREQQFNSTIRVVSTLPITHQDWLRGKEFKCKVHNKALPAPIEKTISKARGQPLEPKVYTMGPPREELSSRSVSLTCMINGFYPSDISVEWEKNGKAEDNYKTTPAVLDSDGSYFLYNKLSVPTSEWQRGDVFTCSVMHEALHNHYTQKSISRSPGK
The mark [6] stands for this setting: variant polypeptide with alanine substitution, read-out: Equilibrium dissociation constant of p17 variant KD.
Where [7] appears, read: read-out: equilibrium dissociation constant KD.
The mark [8] stands for this setting: synthetic polypeptide, read-out: equilibrium dissociation constants KD.

As to “19 (GAVYRRSFYDPRTGTWRSSIAYRGG; IgG binding peptide, 2F9) [compound 19]”, the “O.D. 415” value in assay [1] (control 0.101) is 0.353.

Take “16 (HWVNGRSGYDPRTGTWRSSIAYGGG; IgG binding peptide, 2F4) [compound 16]”: in assay [1] (control 0.101), the “O.D. 415” value came to 0.373.

By Kd is commonly meant the concentration at which binding is half-saturated. “GPGISAFSPGRGVYDPETGTWYDAAWHLGELVWATYYDPETGTWEPAWQRMLGQ [SEQ ID NO: 175]”: the Kd in assay [2] (setting [6]) was found to be 45 nM.

As for “14 (SWRRRGSSYDPRTGTWRSSIAYGGG; IgG binding peptide, 2H1) [compound 14]”, the “O.D. 415” value in assay [1] (control 0.101) is 0.282.

Consider “protein G: bacteria-derived natural IgG-binding protein, conventionally used”, for which the Kd at IgG [3] is around 490 nM.

On to “9 (YDPRTGTWRRSSLSYSG; IgG binding peptide, sA7) [compound 9]”, for which the “O.D. 415” value in assay [1] (control 0.08) stood at 0.193.

For the substance “4 (YDPYTGTWRSSIWVLSG; IgG binding peptide, D5) [compound 4]”, the “O.D. 415” value in assay [1] (control 0.08) came to 0.165.

Regarding RSSIAYGGG [SEQ ID NO: 22], the Kd in assay [4] (read-out: KD) and in assay [4] (setting [7]) was 110 µM throughout.

On to “protein A: IgG-binding protein derived from Staphylococcus, conventionally used”, for which the Kd on IgG [3] was around 10 nM.

“6 (YDPWTGTWRSFIWGGGG; IgG binding peptide, sC12) [compound 6]”: in assay [1] (control 0.08), the “O.D. 415” value is listed as 0.149.

With “GPGISAFSPGRGVYDPETGTWYDAAWHLGELVWATYYDPETGTWEPDAQRMLGQ [SEQ ID NO: 176]”, the Kd in assay [2] (setting [6]) amounted to 200 nM.

As for “GPGISAFSPGRGVYDPETGTWYDAAWHLGELVWATYYDPETGTWEADWQRMLGQ [SEQ ID NO: 174]”, in assay [2] (setting [6]), the Kd amounted to 5.6 nM.

As to “DAAWHLGELVWATYYDPETGTWLPDWQTMAQK [SEQ ID NO: 26]”, the Kd in assay [2] (setting [8]) turned out to be 100 nM.

The term Ki denotes the dissociation constant of the complex between target and ligand, obtained from inhibition or displacement. Regarding “Asp Cys Ala Trp His Leu Gly Glu Leu Val Trp Cys Thr [Fc-III]”, the Ki on human IgG was 100 nM. The Kd at IgG [5] was 185 nM.

On to “DAAWHLGELVWATYYDPETGTWAPDWRLMQGQ [SEQ ID NO: 25]”, for which the Kd in assay [2] (setting [8]) stood at 510 nM.

With “8 (YDPVTGTWTSSIASWMG; IgG binding peptide, G11) [compound 8]”, in assay [1] (control 0.08), the “O.D. 415” value is reported as 0.223.

On to “DAAWHLGELVWATYYDPETGTWQPDWLYMTTR [SEQ ID NO: 24]”, for which, in assay [2] (synthetic polypeptide, read-out: KD), the Kd came to 120 nM.

For “GVVRQWSGGGGSGGGGRSSIAYGGG [SEQ ID NO: 21]”, the Kd in assay [4] (setting [7]) turned out to be 23 µM.

As for “15 (TGRGRSARYDPRTGTWRSSIAYGGG; IgG binding peptide, 2F2) [compound 15]”, the “O.D. 415” value in assay [1] (control 0.101) came out at 0.396.

Regarding “GPGISAFSPGRGVYDPETGTWYDAAWHLGELVWATYYDPETGTWEPDWQAMLGQ [SEQ ID NO: 177]”, the dissociation constant (Kd) in assay [2] (setting [6]) was 7.8 nM.

As to “18 (GSVVRWRGYDPRTGTWRSSIAYGGG; IgG binding peptide, 2F7) [compound 18]”, the “O.D. 415” value in assay [1] (control 0.101) came to 0.36.

For “5 (YDPGTGTWRSWLSFNVG; IgG binding peptide, E7) [compound 5]”, the “O.D. 415” value in assay [1] (control 0.08) came to 0.155.

Turning to “7 (YDPRTGTWLLYASRLLG; IgG binding peptide, G3) [compound 7]”, the “O.D. 415” value in assay [1] (control 0.08) amounted to 0.214.

With “peptide from a synthesized branched tetrapolypeptide library (Arg Thr Xaa)4 Lys2 Lys Gly, competitively works with protein A (Fassina et al.) [TG19318]”, the Kd on rabbit IgG is 300 nM.

On to “GPGISAFSPGRGVYDPETGTWYDAAWHLGELVWATYYDPETGTWEPDWQRMLGQ [SEQ ID NO: 57]”, for which the Kd in assay [2] (polypeptide obtained by protease cleavage of p17_trx, read-out: KD) turned out to be 1.6 nM; in assay [2] (polypeptide obtained by protease cleavage of p17_trx, read-out: equilibrium dissociation constant KD), 1.6 nM.

With “12 (AGSRRAHGYDPRTGTWRSSIAYGGG; IgG binding peptide, 2A4) [compound 12]”, the “O.D. 415” value in assay [1] (control 0.101) is listed as 0.267.

Regarding “3 (YDPGTGTWRSYLRFGGG; IgG binding peptide, H3) [compound 3]”, in assay [1] (control 0.08), the “O.D. 415” value is listed as 0.278.

The values above are taken from patent US9605029B2, “Antibody-binding peptide” (NATIONAL INSTITUTE OF ADVANCED INDUSTRIAL SCIENCE AND …, priority 2013, dated 2017).
